Measured values from patent publication US20050181376A1, “Antisense modulation of microsomal triglyceride transfer protein expression” (ISIS Pharmaceuticals, Inc., priority 2001, published 2005).
Strand notation (5' to 3'): a small letter for the sugar, then the base; units joined by * are phosphorothioate-linked, units joined directly phosphodiester-linked; [ ] holds rarer units or linkages, { } end groups; capitals alone tell only the bases. e = 2'-O-(2-methoxyethyl) (MOE); [5mC] = 5-methylcytosine; d = 2'-deoxy (DNA)

Test system: mouse microsomal triglyceride transfer protein mRNA
Test: Antisense inhibition of mouse microsomal triglyceride transfer protein mRNA levels in primary hepatocytes, quantitative real-time PCR
Type: cell-based
Set-up: concentration or dose not given beside the values
Conditions: averages from two experiments
Protocol: Primary mouse hepatocytes were prepared from CD-1 mice purchased from Charles River Labs (Wilmington, Mass.) and were routinely cultured in Hepatocyte Attachment Media (Gibco) supplemented with 10% Fetal Bovine Serum (Gibco/Life Technologies, Gaithersburg, Md.), 250 nM dexamethasone (Sigma), and 10 nM bovine insulin (Sigma). Cells were seeded into 96-well plates (Falcon-Primaria #3872) at a density of 10000 cells/well for use in RT-PCR analysis.
Cells were harvested 16-24 hours after oligonucleotide treatment.
All cytidine residues are 5-methylcytidines. […] Data are averages from two experiments. If present, “N.D.” indicates “no data”.

CTGCAATTAAGCCTTCCAGC (all phosphorothioate, sugars by position and methylation of C not given here; 2'-MOE wings and deoxy gap) [ISIS 144496, 2′-MOE gapmer phosphorothioate antisense oligonucleotide to mouse MTP]
% INHIB (inhibition of mouse microsomal triglyceride transfer protein mRNA levels): at least 30%

GTGGCTGACGGGCCCTTCTC (all phosphorothioate, sugars by position and methylation of C not given here; 2'-MOE wings and deoxy gap) [ISIS 144489, 2′-MOE gapmer phosphorothioate antisense oligonucleotide to mouse MTP]
% INHIB (inhibition of mouse microsomal triglyceride transfer protein mRNA levels): at least 30%

144489 (eG*eT*eG*eG*e[5mC]*dT*dG*dA*d[5mC]*dG*dG*dG*d[5mC]*d[5mC]*d[5mC]*eT*eT*e[5mC]*eT*e[5mC]; antisense) [compound 144489]
% INHIB (inhibition of mouse microsomal triglyceride transfer protein mRNA levels): 42%

144491 (e[5mC]*eA*eG*e[5mC]*eA*dG*d[5mC]*dG*dG*d[5mC]*dA*dG*dT*dT*dG*eT*eG*e[5mC]*eG*e[5mC]; antisense) [compound 144491]
% INHIB (inhibition of mouse microsomal triglyceride transfer protein mRNA levels): 26%

TTCCAGTGCTCCGCCAGAGA (all phosphorothioate, sugars by position and methylation of C not given here; 2'-MOE wings and deoxy gap) [ISIS 144481, 2′-MOE gapmer phosphorothioate antisense oligonucleotide to mouse MTP]
% INHIB (inhibition of mouse microsomal triglyceride transfer protein mRNA levels): at least 30%

144486 (eA*eT*eT*e[5mC]*eT*dG*dA*d[5mC]*dA*d[5mC]*dA*dG*d[5mC]*dT*dT*e[5mC]*e[5mC]*eT*eG*eA; antisense) [compound 144486]
% INHIB (inhibition of mouse microsomal triglyceride transfer protein mRNA levels): 34%

144492 (eT*eG*e[5mC]*eA*e[5mC]*dA*dA*d[5mC]*dG*dG*dT*dG*dA*dG*d[5mC]*eA*eT*eG*eT*eA; antisense) [compound 144492]
% INHIB (inhibition of mouse microsomal triglyceride transfer protein mRNA levels): 39%

144495 (e[5mC]*eA*eG*eA*eA*dT*dG*d[5mC]*d[5mC]*dA*dG*dA*dG*d[5mC]*d[5mC]*eA*eG*eA*eG*eT; antisense) [compound 144495]
% INHIB (inhibition of mouse microsomal triglyceride transfer protein mRNA levels): 42%

144490 (eA*e[5mC]*eG*eA*eT*dT*d[5mC]*dT*dG*dG*dT*dG*dG*dT*dA*eT*eA*eT*e[5mC]*e[5mC]; antisense) [compound 144490]
% INHIB (inhibition of mouse microsomal triglyceride transfer protein mRNA levels): 23%

144510 (eG*eG*eT*e[5mC]*eT*dT*d[5mC]*dT*d[5mC]*d[5mC]*dT*dG*dA*dA*dT*eA*eG*eG*eT*eT; antisense) [compound 144510]
% INHIB (inhibition of mouse microsomal triglyceride transfer protein mRNA levels): 0%

144485 (e[5mC]*eT*e[5mC]*eT*eG*dA*dT*dG*dT*d[5mC]*dG*dT*dT*dG*d[5mC]*eT*eT*eG*e[5mC]*eA; antisense) [compound 144485]
% INHIB (inhibition of mouse microsomal triglyceride transfer protein mRNA levels): 50%

CCCAGCACCTGGTTTGCCGT (all phosphorothioate, sugars by position and methylation of C not given here; 2'-MOE wings and deoxy gap) [ISIS 144477, 2′-MOE gapmer phosphorothioate antisense oligonucleotide to mouse MTP]
% INHIB (inhibition of mouse microsomal triglyceride transfer protein mRNA levels): at least 30%

ATTCTGACACAGCTTCCTGA (all phosphorothioate, sugars by position and methylation of C not given here; 2'-MOE wings and deoxy gap) [ISIS 144486, 2′-MOE gapmer phosphorothioate antisense oligonucleotide to mouse MTP]
% INHIB (inhibition of mouse microsomal triglyceride transfer protein mRNA levels): at least 30%

144472 (eG*e[5mC]*e[5mC]*e[5mC]*eT*dG*dG*dA*dA*dG*dA*dT*dG*d[5mC]*dT*e[5mC]*eT*eT*e[5mC]*eT; antisense) [compound 144472]
% INHIB (inhibition of mouse microsomal triglyceride transfer protein mRNA levels): 0%

144499 (e[5mC]*eG*e[5mC]*eT*eG*dA*d[5mC]*dA*dG*dG*dG*dT*d[5mC]*dG*d[5mC]*e[5mC]*eG*eG*eA*eT; antisense) [compound 144499]
% INHIB (inhibition of mouse microsomal triglyceride transfer protein mRNA levels): 38%

144470 (eG*eT*eA*eG*e[5mC]*d[5mC]*d[5mC]*dA*d[5mC]*dG*d[5mC]*dT*dG*dT*d[5mC]*eT*eT*eG*e[5mC]*eG; antisense) [compound 144470]
% INHIB (inhibition of mouse microsomal triglyceride transfer protein mRNA levels): 5%

CTCGCGATACCACAGACTGA (all phosphorothioate, sugars by position and methylation of C not given here; 2'-MOE wings and deoxy gap) [ISIS 144502, 2′-MOE gapmer phosphorothioate antisense oligonucleotide to mouse MTP]
% INHIB (inhibition of mouse microsomal triglyceride transfer protein mRNA levels): at least 30%

144467 (eG*e[5mC]*eT*e[5mC]*e[5mC]*d[5mC]*dT*d[5mC]*dT*dG*d[5mC]*d[5mC]*dA*d[5mC]*dA*eT*e[5mC]*e[5mC]*eA*eG; antisense) [compound 144467]
% INHIB (inhibition of mouse microsomal triglyceride transfer protein mRNA levels): 0%

144501 (eG*eA*e[5mC]*e[5mC]*eA*d[5mC]*d[5mC]*d[5mC]*dT*dG*dG*dA*dT*d[5mC]*dT*e[5mC]*e[5mC]*eA*eT*eA; antisense) [compound 144501]
% INHIB (inhibition of mouse microsomal triglyceride transfer protein mRNA levels): 52%

CCTGGAGTATGATACTGCTG (all phosphorothioate, sugars by position and methylation of C not given here; 2'-MOE wings and deoxy gap) [ISIS 144484, 2′-MOE gapmer phosphorothioate antisense oligonucleotide to mouse MTP]
% INHIB (inhibition of mouse microsomal triglyceride transfer protein mRNA levels): at least 30%

144493 (eG*e[5mC]*e[5mC]*eA*eG*dT*dA*dT*dA*dG*dG*d[5mC]*dA*dG*dA*eA*eG*eA*eG*eG; antisense) [compound 144493]
% INHIB (inhibition of mouse microsomal triglyceride transfer protein mRNA levels): 24%

144474 (eT*eA*eG*eA*eA*d[5mC]*dT*d[5mC]*d[5mC]*dT*dT*dG*dA*d[5mC]*d[5mC]*eT*eT*e[5mC]*e[5mC]*e[5mC]; antisense) [compound 144474]
% INHIB (inhibition of mouse microsomal triglyceride transfer protein mRNA levels): 16%

144478 (e[5mC]*e[5mC]*e[5mC]*eT*eG*dG*dT*d[5mC]*dT*d[5mC]*dT*dT*d[5mC]*dT*dG*e[5mC]*eA*eA*eG*e[5mC]; antisense) [compound 144478]
% INHIB (inhibition of mouse microsomal triglyceride transfer protein mRNA levels): 41%

144480 (eG*e[5mC]*eT*e[5mC]*eG*dA*dG*dG*dA*d[5mC]*d[5mC]*dT*dG*dT*d[5mC]*e[5mC]*e[5mC]*eA*e[5mC]*eA; antisense) [compound 144480]
% INHIB (inhibition of mouse microsomal triglyceride transfer protein mRNA levels): 51%

144504 (eG*eA*eA*e[5mC]*eT*d[5mC]*d[5mC]*dA*dG*d[5mC]*d[5mC]*d[5mC]*dA*dG*d[5mC]*e[5mC]*eT*e[5mC]*eT*eG; antisense) [compound 144504]
% INHIB (inhibition of mouse microsomal triglyceride transfer protein mRNA levels): 0%

144488 (e[5mC]*eA*eG*e[5mC]*e[5mC]*dT*d[5mC]*dA*dG*d[5mC]*dA*dT*dA*d[5mC]*dT*eT*e[5mC]*eA*eG*eA; antisense) [compound 144488]
% INHIB (inhibition of mouse microsomal triglyceride transfer protein mRNA levels): 35%

144471 (e[5mC]*eA*eT*e[5mC]*eA*d[5mC]*d[5mC]*dA*dT*d[5mC]*dA*dG*dG*dA*dT*eT*e[5mC]*e[5mC]*eT*e[5mC]; antisense) [compound 144471]
% INHIB (inhibition of mouse microsomal triglyceride transfer protein mRNA levels): 21%

TGCACAACGGTGAGCATGTA (all phosphorothioate, sugars by position and methylation of C not given here; 2'-MOE wings and deoxy gap) [ISIS 144492, 2′-MOE gapmer phosphorothioate antisense oligonucleotide to mouse MTP]
% INHIB (inhibition of mouse microsomal triglyceride transfer protein mRNA levels): at least 30%

CCCTTTCACCACGCTGACAG (all phosphorothioate, sugars by position and methylation of C not given here; 2'-MOE wings and deoxy gap) [ISIS 144500, 2′-MOE gapmer phosphorothioate antisense oligonucleotide to mouse MTP]
% INHIB (inhibition of mouse microsomal triglyceride transfer protein mRNA levels): at least 30%

144481 (eT*eT*e[5mC]*e[5mC]*eA*dG*dT*dG*d[5mC]*dT*d[5mC]*d[5mC]*dG*d[5mC]*d[5mC]*eA*eG*eA*eG*eA; antisense) [compound 144481]
% INHIB (inhibition of mouse microsomal triglyceride transfer protein mRNA levels): 33%

CGCTGACAGGGTCGCCGGAT (all phosphorothioate, sugars by position and methylation of C not given here; 2'-MOE wings and deoxy gap) [ISIS 144499, 2′-MOE gapmer phosphorothioate antisense oligonucleotide to mouse MTP]
% INHIB (inhibition of mouse microsomal triglyceride transfer protein mRNA levels): at least 30%

144494 (eA*eA*eG*eG*e[5mC]*dT*dG*dT*dA*dT*dG*dT*dG*dG*dA*e[5mC]*eG*e[5mC]*eT*eG; antisense) [compound 144494]
% INHIB (inhibition of mouse microsomal triglyceride transfer protein mRNA levels): 27%

GCTCGAGGACCTGTCCCACA (all phosphorothioate, sugars by position and methylation of C not given here; 2'-MOE wings and deoxy gap) [ISIS 144480, 2′-MOE gapmer phosphorothioate antisense oligonucleotide to mouse MTP]
% INHIB (inhibition of mouse microsomal triglyceride transfer protein mRNA levels): at least 30%

144508 (e[5mC]*eG*eT*e[5mC]*eA*dT*dA*dG*d[5mC]*dA*dT*dA*dT*d[5mC]*dG*eT*eT*e[5mC]*eT*eG; antisense) [compound 144508]
% INHIB (inhibition of mouse microsomal triglyceride transfer protein mRNA levels): 0%
